# Measured values as given in PubChem BioAssay (NCI).
#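 Cultured in 96-well plates, cells were exposed to test compound for 48 hours across five concentrations. TGI denotes the concentration required for complete inhibition of growth.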
# Key:
# Test in all cases: DTP human tumour cell line panel, 48 h
# NCI-H460 lung = tested on: NCI-H460 lung
# HT29 colon = tested on: HT29 colon
# SR leukemia = tested on: SR leukemia
# K-562 leukemia = tested on: K-562 leukemia
# OVCAR-3 ovarian = tested on: OVCAR-3 ovarian
# SNB-19 CNS = tested on: SNB-19 CNS
# SK-MEL-2 melanoma = tested on: SK-MEL-2 melanoma
# SNB-75 CNS = tested on: SNB-75 CNS
# NCI-H522 lung = tested on: NCI-H522 lung
# SK-OV-3 ovarian = tested on: SK-OV-3 ovarian
# UACC-257 melanoma = tested on: UACC-257 melanoma
# U251 CNS = tested on: U251 CNS
# MALME-3M melanoma = tested on: MALME-3M melanoma
# NCI-H226 lung = tested on: NCI-H226 lung
# HCT-15 colon = tested on: HCT-15 colon
# UO-31 renal = tested on: UO-31 renal
# OVCAR-4 ovarian = tested on: OVCAR-4 ovarian
# SN12C renal = tested on: SN12C renal
# 786-0 renal = tested on: 786-0 renal
# RXF 393 renal = tested on: RXF 393 renal
# TK-10 renal = tested on: TK-10 renal
# EKVX NSCLC = tested on: EKVX NSCLC
# KM12 colon = tested on: KM12 colon
# OVCAR-8 ovarian = tested on: OVCAR-8 ovarian
# OVCAR-5 ovarian = tested on: OVCAR-5 ovarian
# BT-549 breast = tested on: BT-549 breast
# ACHN renal = tested on: ACHN renal
# HOP-92 NSCLC = tested on: HOP-92 NSCLC
# A549 NSCLC = tested on: A549 NSCLC
# IGROV1 ovarian = tested on: IGROV1 ovarian
# CCRF-CEM leukemia = tested on: CCRF-CEM leukemia
# NCI-H23 lung = tested on: NCI-H23 lung
# MOLT-4 leukemia = tested on: MOLT-4 leukemia
# MDA-N = tested on: MDA-N
# SF-295 CNS = tested on: SF-295 CNS
# NCI/ADR-RES ovarian = tested on: NCI/ADR-RES ovarian
# DU-145 prostate = tested on: DU-145 prostate
# UACC-62 melanoma = tested on: UACC-62 melanoma
# HCC-2998 colon = tested on: HCC-2998 colon
# HL-60(TB) leukemia = tested on: HL-60(TB) leukemia
# SF-268 CNS = tested on: SF-268 CNS
# MDA-MB-435 = tested on: MDA-MB-435
# M14 melanoma = tested on: M14 melanoma
# SF-539 CNS = tested on: SF-539 CNS
# HS 578T breast = tested on: HS 578T breast
# SW-620 colon = tested on: SW-620 colon
# LOX IMVI melanoma = tested on: LOX IMVI melanoma
# HOP-62 NSCLC = tested on: HOP-62 NSCLC
# CAKI-1 renal = tested on: CAKI-1 renal
# RPMI-8226 leukemia = tested on: RPMI-8226 leukemia
# HCT-116 colon = tested on: HCT-116 colon
structure (smiles),measurement,setting,value
CN1CNc2nc(N)n(C)c(=O)c2C1,TGI,NCI-H460 lung,> 10 µM
same,TGI,HT29 colon,> 10 µM
same,TGI,SR leukemia,> 10 µM
same,TGI,K-562 leukemia,> 10 µM
same,TGI,OVCAR-3 ovarian,> 10 µM
same,TGI,SNB-19 CNS,> 10 µM
same,TGI,SK-MEL-2 melanoma,> 10 µM
same,TGI,SNB-75 CNS,> 10 µM
same,TGI,NCI-H522 lung,> 10 µM
same,TGI,SK-OV-3 ovarian,> 10 µM
same,TGI,UACC-257 melanoma,> 10 µM
same,TGI,U251 CNS,> 10 µM
same,TGI,MALME-3M melanoma,> 10 µM
same,TGI,NCI-H226 lung,> 10 µM
same,TGI,HCT-15 colon,> 10 µM
same,TGI,UO-31 renal,> 10 µM
same,TGI,OVCAR-4 ovarian,> 10 µM
same,TGI,SN12C renal,> 10 µM
same,TGI,786-0 renal,> 10 µM
same,TGI,RXF 393 renal,> 10 µM
same,TGI,TK-10 renal,> 10 µM
same,TGI,EKVX NSCLC,> 10 µM
same,TGI,KM12 colon,> 10 µM
same,TGI,OVCAR-8 ovarian,> 10 µM
same,TGI,OVCAR-5 ovarian,> 10 µM
same,TGI,BT-549 breast,> 10 µM
same,TGI,ACHN renal,> 10 µM
same,TGI,HOP-92 NSCLC,> 10 µM
same,TGI,A549 NSCLC,> 10 µM
same,TGI,IGROV1 ovarian,> 10 µM
same,TGI,CCRF-CEM leukemia,> 10 µM
same,TGI,NCI-H23 lung,> 10 µM
same,TGI,MOLT-4 leukemia,> 10 µM
same,TGI,MDA-N,> 10 µM
same,TGI,SF-295 CNS,> 10 µM
same,TGI,NCI/ADR-RES ovarian,> 10 µM
same,TGI,DU-145 prostate,> 10 µM
same,TGI,UACC-62 melanoma,> 10 µM
same,TGI,HCC-2998 colon,> 10 µM
same,TGI,HL-60(TB) leukemia,> 10 µM
same,TGI,SF-268 CNS,> 10 µM
same,TGI,MDA-MB-435,> 10 µM
same,TGI,M14 melanoma,> 10 µM
same,TGI,SF-539 CNS,> 10 µM
COc1ccc2c3c1O[C@H]1C(OC)C=CC4C(C2)N(Cc2cccs2)CCC341 (some centres undefined),TGI,NCI-H460 lung,> 100 µM
same,TGI,HT29 colon,> 100 µM
same,TGI,SR leukemia,> 100 µM
same,TGI,HS 578T breast,> 100 µM
same,TGI,K-562 leukemia,> 100 µM
same,TGI,OVCAR-3 ovarian,> 100 µM
same,TGI,SNB-19 CNS,> 100 µM
same,TGI,NCI-H522 lung,> 100 µM
same,TGI,SW-620 colon,> 100 µM
same,TGI,SK-OV-3 ovarian,> 100 µM
same,TGI,UACC-257 melanoma,> 100 µM
same,TGI,LOX IMVI melanoma,> 100 µM
same,TGI,MALME-3M melanoma,> 100 µM
same,TGI,HCT-15 colon,> 100 µM
same,TGI,UO-31 renal,> 100 µM
same,TGI,SN12C renal,> 100 µM
same,TGI,786-0 renal,> 100 µM
same,TGI,TK-10 renal,> 100 µM
same,TGI,EKVX NSCLC,> 100 µM
same,TGI,OVCAR-8 ovarian,> 100 µM
same,TGI,OVCAR-5 ovarian,> 100 µM
same,TGI,BT-549 breast,> 100 µM
same,TGI,HOP-92 NSCLC,> 100 µM
same,TGI,A549 NSCLC,> 100 µM
same,TGI,IGROV1 ovarian,> 100 µM
same,TGI,CCRF-CEM leukemia,> 100 µM
same,TGI,NCI-H23 lung,> 100 µM
same,TGI,MOLT-4 leukemia,> 100 µM
same,TGI,HOP-62 NSCLC,> 100 µM
same,TGI,MDA-N,> 100 µM
same,TGI,CAKI-1 renal,> 100 µM
same,TGI,SF-295 CNS,> 100 µM
same,TGI,NCI/ADR-RES ovarian,> 100 µM
same,TGI,HCC-2998 colon,> 100 µM
same,TGI,HL-60(TB) leukemia,> 100 µM
same,TGI,RPMI-8226 leukemia,> 100 µM
same,TGI,SF-268 CNS,> 100 µM
same,TGI,MDA-MB-435,> 100 µM
same,TGI,HCT-116 colon,> 100 µM
same,TGI,M14 melanoma,> 100 µM
